Results as given in patent publication US10517867B2, “Posaconazole derivative, pharmaceutical composition and use thereof” (priority 2016, dated 2019).
Read-outs that look alike come from different tables or passages of the source.

Assays:
[1] = tested on: Aspergillus Fumigutus (AF) strains; experiment: Aspergillus fumigatus keratitis in rats, intravenous administration; conditions: 10 mg/kg tail vein once daily for 5 days; mean ± SD of 10 rats
[2] = Determination of solubility in deionized water (HPLC, external standard); conditions: for solubility at 30 min: 25 °C, water, thermodynamic from solid
[3] = tested on: Candida albicans ATCC10231; experiment: Candida albicans vaginitis in mice, intravenous administration; conditions: logarithm of the CFU values, mean ± SD of 20 mice; for vaginal fungal load of mice, day 5: 20 mg/kg tail vein once a day for 5 days, day 5 after infection; for vaginal fungal load of mice, day 3: 20 mg/kg tail vein once a day, day 3 after infection
Method: KM mice, weighing 18-22 g, female, provided by Hubei Experimental Animal Center.
The standard strain of Candida albicans was purchased from the American Type Culture
Collection, strain number ATCC10231.
Prior to being infected with Candida albicans, animals in each group were given subcutaneous injections of 0.5 ml of estradiol benzoate (2 mg/ml) for 6 consecutive days to allow them to enter the estrus phase. Injections were continued once every 2 days until the completion of the experiment. After 6 days, 20 μl of Candida albicans solution in a concentration of 3.5×10^6 CFU/ml was injected vaginally into each mouse, causing a vaginal infection model. From the first day after infection, each group of animals was given 20 mg/kg of the corresponding drug (calculated as posaconazole) in the tail vein at an administration volume of 0.1 ml/10 g once a day for 5 consecutive days. The model group was given an equal volume of solvent (physiological saline). On the 3rd and 5th days after infection, the vagina of mice were wiped with sterile cotton swabs. The cotton swabs were soaked in 0.9 ml physiological saline. The fungal solutions were diluted to 10-fold increments to give a series of concentrations, and then 100 μl of each concentration of the bacteria solutions was taken and inoculated on Sabourand's dextrose agar solid medium containing 0.5% (W/V) chloramphenicol to observe the fungal load of Candida albicans on the vagina.

[4] = tested on: Aspergillus fumigatus AF293; experiment: Lung Aspergillus fumigatus infection in immunosuppressed mice, intragastric administration; conditions: mouse lung tissue, seven days later, 20 mg/kg intragastric once daily for 5 days, mean ± SD
Method: Aspergillus fumigatus AF293, from the Guangdong Provincial Microbial Culture Collection Center.
ICR male mice were injected intraperitoneally with cyclophosphamide 150 mg/kg and injected subcutaneously with dexamethasone 150 mg/kg for 10 consecutive days. At the same time, the blood was taken to measure the changes of peripheral white blood cells and neutrophils, and mice with neutrophils consistently lower than 100/μl were selected as successfully immunosuppressed mice. Immediately after the last injection, the mice were anesthetized with ethyl ether, and mice were transferred from the initial state of excitement to inhibition. After their bodies were relaxed, the mice were immediately taken. Left hand was used to grasp the mouse to make it stand upright, the middle finger pressed the mouth so that it could breath only with the nose, and the ring finger gently pressed the abdomen to move the diaphragm muscle upward. 30 μl of conidia suspension (Aspergillus fumigatus AF293, 3×10^6 conidia) was sent to the nostrils of the anesthetized mice by a micropipette to allow spontaneous inhalation. After the mouse returned to normal breathing, it was returned to the cage. […] Seven days later, the mice were sacrificed and their lung tissues were taken to observe the fungal loads of Aspergillus fumigatus in the lungs of the mice.

[5] = tested on: Aspergillus fumigatus AF293; experiment: Lung Aspergillus fumigatus infection in immunosuppressed mice, intravenous administration; conditions: for survival rate of mice, day 1 / survival rate of mice, day 2 / survival rate of mice, day 3 / survival rate of mice, day 4 / survival rate of mice, day 5 / survival rate of mice, day 6 / lung fungal load: 20 mg/kg tail vein once daily for 5 days; for lung fungal load: mouse lung tissue, seven days later, mean ± SD; for responders at 20 mg/kg: Aspergillus fumigatus, AF293, in Mus musculus, iv
[6] = tested on: Candida albicans ATCC10231; experiment: Candida albicans vaginitis in mice, intragastric administration; assay type: in vivo, KM mice; conditions: logarithm of the CFU values, mean ± SD of 20 mice; for vaginal fungal load of mice, day 15: 20 mg/kg intragastric once a day for 15 days; for vaginal fungal load of mice, day 3 / vaginal fungal load of mice, day 5 / vaginal fungal load of mice, day 7 / vaginal fungal load of mice, day 11: 20 mg/kg intragastric once a day
[7] = tested on: Candida albicans ATCC10231; experiment: Systemic fungal infection in mice, intragastric administration; assay type: in vivo, ICR mice; conditions: for responders at 20 mg/kg: Candida albicans, ATCC10231, po
[8] = physchem; conditions: 25 °C, water, thermodynamic from solid
[9] = 24 h, read-out: survival rate of mice, day 1, 20 mg/kg intragastric once daily for 5 days, day 1
[10] = 48 h, read-out: survival rate of mice, day 2, 20 mg/kg intragastric once daily for 5 days, day 2
[11] = 72 h, read-out: survival rate of mice, day 3, 20 mg/kg intragastric once daily for 5 days, day 3
[12] = 96 h, read-out: survival rate of mice, day 4, 20 mg/kg intragastric once daily for 5 days, day 4
[13] = 120 h, read-out: survival rate of mice, day 5, 20 mg/kg intragastric once daily for 5 days, day 5
[14] = 144 h, read-out: survival rate of mice, day 6, 20 mg/kg intragastric once daily for 5 days, day 6
[15] = 168 h, read-out: survival rate of mice, day 7, 20 mg/kg intragastric once daily for 5 days, day 7
[16] = 24 h, read-out: survival rate of mice, day 1, 20 mg/kg tail vein once daily for 5 days, day 1
[17] = 48 h, read-out: survival rate of mice, day 2, 20 mg/kg tail vein once daily for 5 days, day 2
[18] = 72 h, read-out: survival rate of mice, day 3, 20 mg/kg tail vein once daily for 5 days, day 3
[19] = 96 h, read-out: survival rate of mice, day 4, 20 mg/kg tail vein once daily for 5 days, day 4
[20] = 120 h, read-out: survival rate of mice, day 5, 20 mg/kg tail vein once daily for 5 days, day 5
[21] = 144 h, read-out: survival rate of mice, day 6, 20 mg/kg tail vein once daily for 5 days, day 6
[22] = 168 h, read-out: survival rate of mice, day 7, 20 mg/kg tail vein once daily for 5 days, day 7

Compound	Amount of active fungi in cornea at day 7 [1]	solubility at 30 min [2] [mg/mL]	vaginal fungal load of mice, day 5 ([3]; 20 mg/kg)	vaginal fungal load of mice, day 3 ([3]; 20 mg/kg)	lung fungal load ([4]; 20 mg/kg)	survival rate of mice, day 1 ([5]; day 1) [%]	survival rate of mice, day 2 ([5]; day 2) [%]	survival rate of mice, day 3 ([5]; day 3) [%]	survival rate of mice, day 4 ([5]; day 4) [%]	survival rate of mice, day 5 ([5]; day 5) [%]	survival rate of mice, day 6 ([5]; day 6) [%]	lung fungal load [4]	responders at 20 mg/kg [5, 16] [%]	responders at 20 mg/kg [5, 17] [%]	responders at 20 mg/kg [5, 18] [%]	responders at 20 mg/kg [5, 19] [%]	responders at 20 mg/kg [5, 20] [%]	responders at 20 mg/kg [5, 21] [%]	responders at 20 mg/kg [5, 22] [%]	lung fungal load [5]	other results
CC[C@@H]([C@H](C)O)n1ncn(-c2ccc(N3CCN(c4ccc(OC[C@@H]5CO[C@@](Cn6c[n+](C(C)OC(=O)N(C)c7ncccc7COC(=O)[C@@H](N)CCCN)cn6)(c6ccc(F)cc6F)C5)cc4)CC3)cc2)c1=O (stereo partly shown) [ST0007]	1.87 ± 0.35 10^3 CFU/ml	> 50	3.87 ± 0.31	4.08 ± 0.52	4.12 ± 0.87 10^4 CFU/ml	100	100	100	100	90	90										lung fungal load ([5]; 20 mg/kg): 1.68 ± 0.31 10^4 CFU/ml; vaginal fungal load of mice, day 15 ([6]; 20 mg/kg): 2.87 ± 0.24; vaginal fungal load of mice, day 3 ([6]; 20 mg/kg): 4.35 ± 0.54; vaginal fungal load of mice, day 5 ([6]; 20 mg/kg): 4.47 ± 0.65; vaginal fungal load of mice, day 7 ([6]; 20 mg/kg): 4.23 ± 0.41; vaginal fungal load of mice, day 11 ([6]; 20 mg/kg): 3.81 ± 0.27
CC[C@@H]([C@H](C)O)n1ncn(-c2ccc(N3CCN(c4ccc(OC[C@@H]5CO[C@@](Cn6c[n+](C(C)OC(=O)N(C)c7ccccc7COC(=O)[C@@H](N)CCCN)cn6)(c6ccc(F)cc6F)C5)cc4)CC3)cc2)c1=O (stereo partly shown) [ST0008]	2.59 ± 0.37 10^3 CFU/ml	> 50										3.49 ± 0.64 10^4 CFU/ml	100	100	100	90	80	80	70	2.07 ± 0.42 10^4 CFU/ml	responders at 20 mg/kg [7, 9]: 100%; responders at 20 mg/kg [7, 10]: 90%; responders at 20 mg/kg [7, 11]: 90%; responders at 20 mg/kg [7, 12]: 80%; responders at 20 mg/kg [7, 13]: 80%; responders at 20 mg/kg [7, 14]: 60%; responders at 20 mg/kg [7, 15]: 60%; vaginal fungal load of mice, day 5 [3]: 3.86 ± 0.21; vaginal fungal load of mice, day 3 [3]: 4.05 ± 0.25; vaginal fungal load of mice, day 15 [6]: 2.68 ± 0.18; vaginal fungal load of mice, day 3 [6]: 4.21 ± 0.32; vaginal fungal load of mice, day 5 [6]: 4.34 ± 0.47; vaginal fungal load of mice, day 7 [6]: 3.85 ± 0.35; vaginal fungal load of mice, day 11 [6]: 3.31 ± 0.29
CC[C@@H]([C@H](C)OP(=O)(O)O)n1ncn(-c2ccc(N3CCN(c4ccc(OC[C@@H]5CO[C@@](Cn6c[n+](C(C)OC(=O)N(C)c7ncccc7COC(=O)[C@@H](N)CCCN)cn6)(c6ccc(F)cc6F)C5)cc4)CC3)cc2)c1=O (stereo partly shown) [ST0009]	2.76 ± 0.45 10^3 CFU/ml	> 50										3.91 ± 0.85 10^4 CFU/ml	100	100	100	90	80	80	70	2.03 ± 0.46 10^4 CFU/ml	vaginal fungal load of mice, day 5 [3]: 3.89 ± 0.54; vaginal fungal load of mice, day 3 [3]: 4.05 ± 0.23
CC[C@@H]([C@H](C)OC(=O)[C@@H](N)CO)n1ncn(-c2ccc(N3CCN(c4ccc(OC[C@@H]5CO[C@@](Cn6c[n+](C(C)OC(=O)N(C)c7ncccc7COC(=O)[C@@H](N)CCCN)cn6)(c6ccc(F)cc6F)C5)cc4)CC3)cc2)c1=O (stereo partly shown) [ST0010]	3.93 ± 0.73 10^3 CFU/ml	> 50										3.40 ± 0.63 10^4 CFU/ml	100	100	90	80	80	70	60	2.75 ± 0.37 10^4 CFU/ml	responders at 20 mg/kg [7, 9]: 100%; responders at 20 mg/kg [7, 10]: 100%; responders at 20 mg/kg [7, 11]: 90%; responders at 20 mg/kg [7, 12]: 70%; responders at 20 mg/kg [7, 13]: 70%; responders at 20 mg/kg [7, 14]: 60%; responders at 20 mg/kg [7, 15]: 60%; vaginal fungal load of mice, day 15 [6]: 2.75 ± 0.41; vaginal fungal load of mice, day 3 [6]: 4.21 ± 0.32; vaginal fungal load of mice, day 5 [6]: 4.38 ± 0.41; vaginal fungal load of mice, day 7 [6]: 3.97 ± 0.55; vaginal fungal load of mice, day 11 [6]: 3.37 ± 0.28
CC[C@@H]([C@H](C)O)n1ncn(-c2ccc(N3CCN(c4ccc(OC[C@@H]5CO[C@@](Cn6c[n+](C(C)OC(=O)N(C)c7ncccc7COC(=O)[C@@H](N)CCCN)cn6)(c6ccc(F)cc6F)C5)cc4)CC3)cc2)c1=O (stereo partly shown) [ST0011]	1.79 ± 0.44 10^3 CFU/ml		3.75 ± 0.47	4.09 ± 0.39	3.47 ± 0.71 10^4 CFU/ml	100	100	100	100	90	90										survival rate of mice, day 1 ([7]; 20 mg/kg intragastric once daily for 5 days, day 1): 100%; survival rate of mice, day 2 ([7]; 20 mg/kg intragastric once daily for 5 days, day 2): 100%; survival rate of mice, day 3 ([7]; 20 mg/kg intragastric once daily for 5 days, day 3): 90%; survival rate of mice, day 4 ([7]; 20 mg/kg intragastric once daily for 5 days, day 4): 80%; survival rate of mice, day 5 ([7]; 20 mg/kg intragastric once daily for 5 days, day 5): 70%; survival rate of mice, day 6 ([7]; 20 mg/kg intragastric once daily for 5 days, day 6): 60%; survival rate of mice, day 7 ([7]; 20 mg/kg intragastric once daily for 5 days, day 7): 60%; Solubility ([2]; 25±2° C., after 30 min): >50 mg/mL; lung fungal load ([5]; 20 mg/kg): 1.46 ± 0.27 10^4 CFU/ml; vaginal fungal load of mice, day 15 ([6]; 20 mg/kg): 2.81 ± 0.27; vaginal fungal load of mice, day 3 ([6]; 20 mg/kg): 4.18 ± 0.27; vaginal fungal load of mice, day 5 ([6]; 20 mg/kg): 4.35 ± 0.47; vaginal fungal load of mice, day 7 ([6]; 20 mg/kg): 3.85 ± 0.67; vaginal fungal load of mice, day 11 ([6]; 20 mg/kg): 3.29 ± 0.20
CC[C@@H]([C@H](C)O)n1ncn(-c2ccc(N3CCN(c4ccc(OC[C@@H]5CO[C@@](Cn6c[n+](C(C)OC(=O)OP(=O)(O)O)cn6)(c6ccc(F)cc6F)C5)cc4)CC3)cc2)c1=O.[Na+].[Na+] (stereo partly shown) [ST0039]																					Solubility [8]: > 50 mg/mL
